“Also recorded” adds a separate entry of the source.
Assays:
[1] = tested on: rats (Sprague Dawley); experiment: Chronic toxicity study, 26 weeks; type: in vivo; details: rat
Procedure: Chronic toxicity study—This study was conducted on rats (Sprague Dawley) treated daily for 26 weeks with chondroitin administered p.o. (by gavage) at doses ranging from 50 to 200 mg/Kg. The general state of health and behaviour of the treated animals were monitored daily, and weight variations, haematological status and urine were evaluated every 7 days. […] At the end of the study all animals were euthanized and an autopsy and histopathological analysis of the main organs (lungs, heart, liver, ovaries, uterus, testicles, kidneys, pituitary gland, lymph nodes and gastrointestinal tract) were conducted. None of these evaluations indicated any significant differences between the animals treated with chondroitin and the control animals which received the carrier alone.

[2] = tested on: volunteers suffering from dry eye; experiment: Ophthalmic eyedrops in volunteers suffering from dry eye; type: in vivo, human
Procedure: Two ophthalmic preparations were compared: a conventional one based on hyaluronic acid and one based on chondroitin, both at the concentration of 3% w/v in NaCl saline solution at pH 7.4. The eyedrops were prepared in single-dose packaging sterilised in the autoclave. […] The volunteers, of both sexes, aged between 45 and 60 years, were randomised into two groups of 15, and treated with the two types of eyedrops. Under medical control the inflammatory state of the corneal surface was evaluated at the beginning and end of the treatment, and the evaluations of the treated patients relating to tolerability, duration of the wetting effect, and visual alteration after application, were recorded. A scale of 1 to 5 was used for the clinical evaluations and the patients' evaluations, where 5 represents optimum resolution of the pathological condition and its sequelae. […]

[3] = tested on: Escherichia coli strain sensitive to the action of mutagenic substances; experiment: DNA-repair test; type: cell-based; details: highest doses, with and without metabolic activation
Procedure: In vitro test, DNA-repair test—The DNA alteration test was conducted with a strain of Escherichia coli sensitive to the action of mutagenic substances. In the study, mitomycin C was used as positive control and penicillin G as negative control.

chondroitin
chronic toxicity, conclusion ([1]; 50 to 200 mg/Kg p.o., 26 weeks): non-toxic at the doses used | No toxicity (dose), chronic 26 weeks ([1]; p.o., daily for 26 weeks): No toxicity >200 mg/kg/day p.o. | Doctor: corneal inflammation ([2]; 0 days, 3% w/v eyedrops, scale of 1 to 5, 5 optimum): 1.1 ± 0.2 | Patient: absence of visual alteration ([2]; 10 days, scale of 1 to 5): 4.6 ± 0.2 | Patient: tolerability ([2]; 10 days, scale of 1 to 5): 4.7 ± 0.2 | Patient: wetting effect ([2]; 10 days, scale of 1 to 5): 4.8 ± 0.3 | Patient: absence of visual alteration ([2]; 20 days, scale of 1 to 5): 4.7 ± 0.1 | Patient: tolerability ([2]; 20 days, scale of 1 to 5): 4.5 ± 0.5 | Patient: wetting effect ([2]; 20 days, scale of 1 to 5): 4.6 ± 0.2 | Doctor: corneal inflammation ([2]; 30 days, 3% w/v eyedrops 4 times a day, scale of 1 to 5): 4.2 ± 0.3 | Patient: absence of visual alteration ([2]; 30 days, scale of 1 to 5): 4.8 ± 0.1 | Patient: tolerability ([2]; 30 days, scale of 1 to 5): 4.8 ± 0.1 | Patient: wetting effect ([2]; 30 days, scale of 1 to 5): 4.9 ± 0.1 | interaction with / alteration of DNA (DNA-repair test) [3]: does not interact and does not alter the DNA; also recorded: Even at higher doses it does not interact and does not alter

Source: patent US10206944B2, “Chondroitin for use in medicine” (ALTERGON S.A., priority 2012, dated 2019)
